Columns and labels:
[1] = tested on: IL-6, IL-1β IL-23 and TNF-a; details: cited from earlier work
IL-12/p40 = details: cited from earlier work
[2] = tested on: isolated postnatal microglial cell cultures; test: Cytokine gene expression in microglial cell cultures treated with synthetic Aβ1-42; format: cell-based; details: 22.5 μg/ml
Protocol: Treatment of isolated postnatal microglial cell cultures with synthetic Aβ1-42 peptides (22.5 μg/ml) induced an almost 6-fold upregulation of IL-12/IL-23p40 after 24 h when compared to unstimulated controls (FIG. 1c).
Since both in human AD samples as well as in transgenic AD mice, microglia and macrophages surrounding Aβ-plaques are reported to be a major source of inflammatory cytokines, we FACS sorted myeloid brain cells of Alzheimer mice in order to better characterize this inflammatory component. Initially, we assessed the expression of IL-12, IL-23 and TNFα in 4-month-old APPPS1 animals and age matched non-transgenic littermates by quantitative PCR of the two cellular fractions obtained (CD45^+ CD11b^+ and CD45^− CD11b^−). […] In contrast, we observed a robust upregulation of IL-12/IL-23p40 and IL-23p19 in the double positive fraction containing microglia and brain macrophages of APPPS1 mice compared to age-matched littermate controls (FIG. 1b). […] To validate a potential link between IL-12 and IL-23 subunits and Aβ-pathology in APPPS1 transgenic animals—besides their impact in models of CNS autoimmune disease, IL-12/IL-23 have not been described to play a role in neurodegenerative diseases so far—as well as to test, whether inhibition of IL-12 and IL-23 subunits could alter disease progression in AD mice, genetic and applied experiments targeting IL-12 and IL-23 subunits in AD mice were performed.

Molecule: CC/C=C\C[C@H](O)C(O)/C=C/C=C/C=C\C=C\[C@@H](O)C/C=C\CCC(=O)O (stereo partly drawn) [Resolvin D2, (7S, 17S)-7, 16, 17-trihydroxydocosa-4,8, 10, 12, 14, 19-hexaenoic acid]
- levels of proinflammatory cytokines, namely IL-6, IL-1β IL-23 and TNF-a [1]: drastically reduces

Molecule: CC[C@@H](O)/C=C/C=C\C[C@@H](O)/C=C/C=C/C=C\[C@@H](O)CCCC(=O)O [Resolvin E1, (5S, 12R, 18R)-5, 12, 18-trihydroxyicosa-6,8, 10, 14, 16-pentaenoic acid]
- proinflammatory gene expression, i. a. IL-12/p40 (IL-12/p40): dramatically decreases

Molecule: Aβ1-42 peptides: synthetic Aβ1-42 peptides used to stimulate microglial cell cultures
- upregulation of IL-23p19 [2]: substantial upregulation
- upregulation of TNFα [2]: substantial upregulation
- upregulation of IL-12/IL-23p40 over unstimulated controls ([2]; 24 h): ~6 fold
